Measurements from patent US5126258A (priority 1988, dated 1992).

Tests used:
[1] = system: 44A2; experiment: Hydrolysis of reactant ligands by receptor 44A2; type: biochemical, mouse; details: pH 8.0; receptor/ligand uM, time h: 17 1/10, 2; 18 2/10, 24; 20 2/10, 0.33; 5 1/5, 0.33; 22 5/10, 3.5; preliminary
Procedure: (§1) ^1 Preliminary initial hydrolyses shown as the percentage of admixed
(§2) reactant ligand consumed for catalyzed and spontaneous hydrolyses. "--" =
(§3) No hydrolysis observed. "NT" = Not tried. All reactions were carried out
(§4) at pH 8.0 in a 50 mM phosphate buffer unless otherwise noted. Hydrolytic
(§5) percentages were determined by HPLC using a Hitachi model 655A12 liquid
(§6) chromatograph with a C18 Vydac 201TP54 column, except as noted below.
(§7) Mixtures of acetonitrile a nd water containing 0.1 percent trichloroaceti
(§8) acid [28:72-50:50 (v/v)] were used as elutant. Hydrolyses of Compounds 5
(§9) and 20 were assayed using fluorescence data.
(§10) ^2 Concentrations of receptor molecules (Rec.) and reactant ligands
(§11) (Lig.) in micromolar units, presuming a molecular weight of 150,000
(§12) daltons for each receptor molecule.
(§13) ^3 Reactant ligand (Lig.) used as substrate.
(§14) ^4 Time in hours that the reaction was permitted to take place.
(§15) ^5 Spontaneous hydrolytic percentages for the time period indicated.
(§16) ^6 Reaction carried out at pH 7.2 in a 50 mM phosphate buffer.

[2] = Spontaneous (uncatalyzed, background) hydrolysis; type: physicochemical; details: pH 8.0, 50 mM phosphate; time (h): 17 2; 18 24; 20 0.33; 5 0.33; 22 3.5
Procedure: The practical range of pH for the assay is limited by the rapid spontaneous rate of hydrolysis of an ester Compound 5 above pH 8.0. Initially, the ester was used at a concentration that was about four-fold greater than that of the protein, and the mixture was incubated at pH 7.2 for 10 minutes. Any change in fluorescence above background was noted.
The lack of spectroscopic distinction between such esters and their hydrolysis products recommended a chromatographic analysis of the process. Referring to FIG. 3, a mixture of Compound 7 (5 uM) and the monoclonal antibody from hybridoma P3 6D4 (0.1 uM) in phosphate buffer (50 mM, pH 8.0) was analyzed over time by high performance liquid chromatography (HPLC). The accelerated hydrolysis of the ester was apparent from the decrease of its peak and the concurrent increase in two new peaks that correspond with the expected products. Under these conditions, the ester is completely consumed in 60-80 minutes during which time the background rate accounts for about 12 to 16 percent hydrolysis. The chromatographic profile is the same as that produced by treatment with hog liver esterase.
^c The rate constants were determined spectrophotometrically (at 245
nm) by measuring initial rates at five concentrations of ester.
as §1, §2, §3, §4, §5, §6, §7, §8, §9, §15
Reaction kinetics were studied using three reactant ligands as substrates for monoclonal receptors 37G2 and 22F5. Data from initial rates were consistent with Michaelis-Menten reaction mechanism for a usual enzyme-substrate system. Initial rates were followed using at 271 nm using a U.V.-visible spectorphotometer for Compound 17, and a fluorescence spectrometer for Compounds 5 and 20, using an excitation wavelength of 355 nm and an emission wavelength of 455 nm for both compounds.

[3] = system: 13E10; experiment: Hydrolysis of reactant ligands by receptor 13E10; type: biochemical, mouse; details: pH 8.0; receptor/ligand uM, time h: 17 1/10, 2; 18 2/10, 24; 20 2/10, 0.33; 5 1/5, 0.33; 22 5/10, 3.5; preliminary
Procedure: as §1, §2, §3, §4, §5, §6, §7, §8, §9, §10, §11, §12, §13, §14, §15, §16

[4] = system: 7E5; experiment: Hydrolysis of reactant ligands by receptor 7E5; type: biochemical, mouse; details: pH 8.0; receptor/ligand uM, time h: 17 1/10, 2; 18 2/10, 24; 20 2/10, 0.33; 5 1/5, 0.33; 22 5/10, 3.5; preliminary
Procedure: as §1, §2, §3, §4, §5, §6, §7, §8, §9, §10, §11, §12, §13, §14, §15, §16

[5] = system: 17G8; experiment: Hydrolysis of reactant ligands by receptor 17G8; type: biochemical, mouse; details: pH 8.0; receptor/ligand uM, time h: 18 2/10, 24; 20 2/10, 0.33; 5 1/5, 0.33; 22 5/10, 3.5; preliminary
Procedure: as §1, §2, §3, §4, §5, §6, §7, §8, §9, §10, §11, §12, §13, §14, §15, §16

[6] = system: 1209; experiment: Hydrolysis of reactant ligands by receptor 12C9 (column head prints 1209); type: biochemical, mouse; details: pH 8.0; receptor/ligand uM, time h: 17 1/10, 2; 18 2/10, 24; 20 2/10, 0.33; 5 1/5, 0.33; 22 5/10, 3.5; preliminary
Procedure: as §1, §2, §3, §4, §5, §6, §7, §8, §9, §10, §11, §12, §13, §14, §15, §16

[7] = system: 37G2; experiment: Hydrolysis of reactant ligands by receptor 37G2; type: biochemical, mouse; details: pH 8.0; receptor/ligand uM, time h: 17 1/10, 2; 18 2/10, 24; 20 2/10, 0.33; 5 1/5, 0.33; 22 5/10, 3.5; preliminary
Procedure: as §1, §2, §3, §4, §5, §6, §7, §8, §9, §10, §11, §12, §13, §14, §15, §16

[8] = system: 21G2; experiment: Hydrolysis of reactant ligands by receptor 21G2; type: biochemical, mouse; details: pH 8.0; receptor/ligand uM, time h: 17 1/10, 2; 18 2/10, 24; 20 2/10, 0.33; 5 1/5, 0.33; 22 5/10, 3.5; preliminary
Procedure: as §1, §2, §3, §4, §5, §6, §7, §8, §9, §10, §11, §12, §13, §14, §15, §16

[9] = system: 22F5; experiment: Hydrolysis of reactant ligands by receptor 22F5; type: biochemical, mouse; details: pH 8.0; receptor/ligand uM, time h: 17 1/10, 2; 18 2/10, 24; 20 2/10, 0.33; 5 1/5, 0.33; 22 5/10, 3.5; preliminary
Procedure: as §1, §2, §3, §4, §5, §6, §7, §8, §9, §10, §11, §12, §13, §14, §15, §16

[10] = system: monoclonal antibody P3 6D4; experiment: Kinetics and inhibition of catalytic ester hydrolysis by monoclonal antibody P3 6D4, spectrophotometric at 245 nm; type: biochemical, mouse; details: picolinic acid alone or picolinic acid and zinc chloride
Procedure: FIG. 4 illustrates a Lineweaver-Burk plot for the hydrolysis of Compound 7 by anti-Compound 4 monoclonal antibody from hybridoma P3 6D4. Velocities were determined spectrophotometrically by measuring initial rates during the first linear portion of the reaction as described with reference to Table 2. The substrate concentrations were corrected for amounts consumed during initial equilibration. ( ) No inhibitor present. ( ) Inhibited by 50 nM phosphonate (Compound 3). ( ) Inhibited by 100 nM phosphonate (Compound 3).
In particular, an exemplary monoclonal receptor was produced by the standard hybridoma technology of Kohler et al., Nature, 256, 495 (1975). Specifically, female 129G1X^+ mice were immunized by intraperitoneal injection with an inoculum of 100 micrograms of conjugate (e.g., Compound 4i bound to KLH) in 300 microliters of a 1:1 mixture of phosphate buffered saline (PBS) pH 7.4 and complete Freund's adjuvant. Two weeks later, the mice were again injected in a like manner with 50 micrograms of the foregoing conjugate in 300 microliters of a 1:1 mixture of PBS (pH 7.4) and 10 mg/ml alum. After an additional eight weeks, the mice were immunized intravenously with 50 micrograms of the conjugate in 200 microliters of PBS (pH 7.4). The spleens were removed from the mice 4 days later, and the spleen cells were fused to myeloma cells.
Reaction kinetics were measured spectrophotometrically by following the absorption change at 245 nanometers. […] Kinetic parameters obtained with these substrates are shown in Table 2 along with the inhibition constants obtained with phosphonate (Compound 3). Under these conditions, the acceleration above the background rate is about 960-fold for Compound 7 and about 200-fold for Compound 8 (corrected for the background hydrolysis rate).
*The kinetic parameters shown in Table 2 are for the hydrolysis of esters
(Compounds 7 and 8) by monoclonal antibody P3 6D4. A PerkinElmer lambda 4
spectrophotometer, equipped with thermostatted cell holder, was used to
measure absorption changes at 245 nm. Cells containing the substrate at
concentrations of 0.5 to 50 micromolar in phosphate buffer (50 mM, pH 8.0
were preequilibrated at 25 degrees C. The concentration of active IgG in
stock solution was found by reacting with the coumarin ester (Compound 5)
and measuring the yield of hydroxycoumarin by fluorescence. The kinetic
run was initiated by addition of an aliquot of the antibody stock solutio
(in 50 mM phosphate buffer, pH 8.0) calculated to give 100 nM IgG. The
mixture was allowed to equilibrate for 2 to 3 minutes and the rate was
then measured during the subsequent 10 minutes. The absorption change for
complete hydrolysis was determined by treatment with esterase. Kinetic
parameters were obtained from L ineweaverBurk plots (see FIG. 4).
Inhibition constants were determined from a plot of the slopes with at
least four inhibitor concentrations of Compound 3. The data were analyzed

[11] = system: monoclonal receptor P3 6D4; experiment: Stoichiometric transacylation reaction of monoclonal receptor P3 6D4 with coumarin ester Compound 5 (fluorescence) and its inhibition/inactivation; type: biochemical, mouse; details: up to 100 micromolar added zinc and picolinic acid; EDTA concentration not given
Procedure: A Perkin-Elmer LS-5 fluorescence spectrometer was operated at a fixed wavelength, using 355 nanometers (nm) for excitation and measuring the emission at 455 nm. A stock solution of the coumarin ester 5 was prepared in dioxane and was diluted to the desired concentrations in Tris-HCl (50 mM, pH 7) or sodium phosphate (50 mM, pH 4-9).
Reactions were run at 23 degrees C and were initiated by the addition of an aliquot of antibody solution (1 mg/ml) to substrate solutions to provide a final protein concentration of 100 nM. Final fluorescence values were determined by hydrolysis of the substrate with pig liver esterase. The observed reaction rate was corrected for spontaneous hydrolysis. Reaction kinetics were studied by measuring initial rates under pseudo-first order conditions. Active protein concentration was extrapolated from fluorescence values at the end of the reaction. The kinetic parameters were obtained by fitting the data to a hyperbolic curve and from double reciprocal plots. Inhibition constants were determined from the Lineweaver-Burk plot data with at least five inhibitor concentrations. All the data were studied by a least squares analysis.
Antibody preparations were inactivated without introducing fluorescent products by the addition of the activated ester (Compound 8) in dioxane to a solution of the IgG (5 mg/ml) in Tris-HCl (50 mM, pH 6.5) at a ratio of 5 moles of the ester (Compound 8) per mole IgG.
Protein modification was performed in an analogous manner, by the addition of a dioxane solution of the reagent at a known concentration to the antibody. The solution was incubated for 30 minutes before filtration through Sephadex G-25. The activity remaining was compared to control samples. Aliquots of IgG (5 mg/ml) inactivated with the ester (Compound 8) were diluted with four volumes of phosphate buffer (50 mM, pH 4-9, at intervals of 1 pH unit). Any pH change was recorded, and the sample was stored at 4 degrees C for 24 hours.
Initially, the ester was used at a concentration that was about four-fold greater than that of the protein, and the mixture was incubated at pH 7.2 for 10 minutes. Any change in fluorescence above background was noted.
The termination of the reaction is noted by the return of the rate of fluorescence increase to the background level.

Structure (SMILES)	hydrolysis by 44A2 [1]	Spon. (spontaneous hydrolysis) [2]	hydrolysis by 13E10 [3]	hydrolysis by 7E5 [4]	hydrolysis by 17G8 [5]	hydrolysis by 1209 [6]	hydrolysis by 37G2 [7]	hydrolysis by 21G2 [8]	hydrolysis by 22F5 [9]	effect of additive on rate of reaction of Compound 7 with antibody [10]	effect of additive on antibody-enhanced esterolysis of Compound 5 [11]
CC(=O)Nc1ccc(CC(=O)Oc2ccccc2)cc1 [Compound 22]	24 percentage of reactant ligand	5 percentage of reactant ligand	14 percentage of reactant ligand	9 percentage of reactant ligand	22 percentage of reactant ligand	12 percentage of reactant ligand	45 percentage of reactant ligand	19 percentage of reactant ligand	26 percentage of reactant ligand		
O=C(O)c1ccccn1 [picolinic acid, reference compound]										no effect	No effect
